# Results from paper PMC6151459, “Targeting PDE10A GAF Domain with Small Molecules: A Way for Allosteric Modulation with Anti-Inflammatory Effects” (Molecules : A Journal of Synthetic Chemistry and Natural …, 2017).
# Target: T1, human recombinant PDE10A2 (Homo sapiens, UniProt Q9Y233)
# T1 construct: These compounds were tested against recombinant human full-length isoenzyme PDE10A; purchased Calbiochem 524739
# Assay: Radiometric phosphodiesterase inhibition assay (SPA, [3H]cAMP)
# Format: biochemical
# Details: fixed compound concentration of 10 µM; read-out: percentage of inhibition of PDE10A
# Experimental: The methodology used for measuring human recombinant PDE10A2 activity was based in a Scintillation Proximity Assay (SPA) from Perkin Elmer (TRKQ7090).
# After the incubation time, 50 µL of a solution of SPA-beads (approximately 1 mg per well) were added to each well and the plate was shaken for 1 h at room temperature. Finally, beads were settled for 30 min and radioactivity was detected in a Microbeta Trilux reader (Perkin Elmer, Shelton, CT, USA).
# IC50 values were calculated by non-linear regression fitting using the GraphPad Prism. Data (radioactivity vs. log concentration) was fitted to a sigmoidal dose-response equation: Y = Bottom + (Top-Bottom)/(1 + 10^[…]), where Bottom and Top were the minimum and maximal inhibition for PDE, respectively, IC50 was the concentration of the compound that inhibited the PDE activity in a 50%, and n was the slope of the concentration-response curve.
# T1 sequence (Q9Y233 267-1055): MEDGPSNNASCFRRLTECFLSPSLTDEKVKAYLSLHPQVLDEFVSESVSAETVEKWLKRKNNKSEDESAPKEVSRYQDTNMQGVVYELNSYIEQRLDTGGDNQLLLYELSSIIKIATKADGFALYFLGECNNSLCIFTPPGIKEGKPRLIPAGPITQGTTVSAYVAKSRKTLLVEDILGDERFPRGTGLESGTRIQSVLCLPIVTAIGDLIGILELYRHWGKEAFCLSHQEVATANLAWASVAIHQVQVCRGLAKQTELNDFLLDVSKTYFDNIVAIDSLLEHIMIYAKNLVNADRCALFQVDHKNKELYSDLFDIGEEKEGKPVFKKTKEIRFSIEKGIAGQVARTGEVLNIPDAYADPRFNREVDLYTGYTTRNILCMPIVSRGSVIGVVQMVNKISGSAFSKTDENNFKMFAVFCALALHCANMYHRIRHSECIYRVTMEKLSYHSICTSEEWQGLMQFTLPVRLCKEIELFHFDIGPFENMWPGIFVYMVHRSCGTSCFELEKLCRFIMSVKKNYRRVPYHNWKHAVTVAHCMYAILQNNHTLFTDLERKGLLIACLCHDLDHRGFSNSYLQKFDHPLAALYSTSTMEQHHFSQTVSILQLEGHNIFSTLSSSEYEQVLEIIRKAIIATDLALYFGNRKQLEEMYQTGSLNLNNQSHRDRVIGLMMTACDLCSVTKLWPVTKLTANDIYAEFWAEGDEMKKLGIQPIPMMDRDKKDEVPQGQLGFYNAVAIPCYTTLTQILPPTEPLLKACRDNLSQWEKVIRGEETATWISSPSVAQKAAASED
row,SMILES,inhibition at 10 µM
1,O=C(Cc1cccc(Cl)c1)Nc1nc2ccccc2s1 [Compound 11],44%
2,O=Cc1nc(-c2ccc(Cl)cc2)ns1 [Compound 13],15%
3,CC(=O)C1=C(c2c(C)[nH]c3ccccc23)C(=O)NC1=O [Compound 14],24%

# More lines, now with the values ahead:
row,inhibition at 10 µM,SMILES
1,40%,O=C(Cc1ccccc1)Sc1ncnc2[nH]cnc12 [Compound 2]
2,7%,O=C(O)COC(=O)CNC(=O)c1ccccc1 [Compound 3]
3,3%,Cc1ccc(-n2nc(C(C)(C)C)cc2N)cc1 [Compound 9]
4,2%,CC(=O)NNC(=O)c1c(O)n(C)c2ccccc2c1=O [Compound 10]
5,3%,O=S1(=O)N=C(O)c2cc(-c3ccccc3)sc2N1 [Compound 12]

# Same assay, conditions: recombinant human full-length PDE10A
row,SMILES,IC50
1,CC(=O)C1=C(c2ccc(C#N)cc2)C(=O)NC1=O [Compound 1],4.6 µM
2,COc1ccc(-c2n/c(=N/Cc3cccnc3)sn2-c2ccccc2)cc1 [Compound 5],1.8 µM
3,CC(=O)C1=C(c2c[nH]c3ncccc23)C(=O)NC1=O [Compound 7],8.2 µM
4,CC(=O)C1=C(c2cn(C)c3ncccc23)C(=O)NC1=O [Compound 15],6.5 µM
5,CC(=O)C1=C(c2cn(C)c3ccccc23)C(=O)NC1=O [Compound 17],8.2 µM

# Second part, the compound after the results:
row,IC50,SMILES
1,10.2 µM,CC(=O)C1=C(c2c[nH]c3ccccc23)C(=O)NC1=O [Compound 4]
2,2.4 µM,O=C(CBr)C1=C(c2c[nH]c3ccccc23)C(=O)NC1=O [Compound 16]
3,2.9 µM,Cn1cc(C2=C(C(=O)CBr)C(=O)NC2=O)c2ccccc21 [Compound 18]

# Test system: Raw 264.7 cells
# Assay: Inhibition of nitrite production in LPS-stimulated murine macrophages (Griess reaction)
# Format: cell-based
# Details: inhibitors 10 μM, 1 h pretreatment, LPS 10 μg mL−1, 24 h, versus LPS-treated cells
# Source text: Finally, to explore the anti-inflammatory potential of the new allosteric PDE10A inhibitors here described, a cell-based assay was used. We have determined differences in nitrite production of Raw 264.7 cells after they were damaged with bacterial lipopolysaccharide (LPS) and treated with selected inhibitors. First, the effect of the compounds on cell viability was examined at various concentrations showing […] significant cytotoxic effect in the present experiments (data not shown).
# Figure 4 Raw 264.7 cells were incubated for 24 h with lipopolysaccharide (LPS; 10 μg mL^−1) in the absence or presence of various Phosphodiesterase (PDE) inhibitors (10 μM), and the production of nitrite was evaluated by the Griess reaction. Cells were pretreated with inhibitors for 1 h before lipopolysaccharide (LPS) stimulation. Values represent the mean ± SD from two independent experiments. *: p < 0.05; **: p < 0.01 versus LPS-treated cells.
# The content of nitrite, one of the end products of NO oxidation, was monitored by a procedure based on the diazotidation of nitrite by sulfanilic acid (Griess reaction). […] The absorbance (520 nm) of the mixture was measured on a microplate reader. The concentration of nitrite was calculated with the linear equation derived from the standard curve generated by known concentrations of sodium nitrite.
row,SMILES,nitrite production
1,CC(=O)C1=C(c2c[nH]c3ccccc23)C(=O)NC1=O [Compound 4],significantly decreased
2,COc1ccc(-c2n/c(=N/Cc3cccnc3)sn2-c2ccccc2)cc1 [Compound 5],significantly decreased

# Test system: PDE10A
# Assay: not given
# Parameters: method as in PMID 21705115
# Details: reference compound; cited from earlier work
row,SMILES,IC50
1,COc1ccc(Cc2nccc3cc(OC)c(OC)cc23)cc1OC [Papaverine],0.019 µM
